In patent publication US7998965B2, “Glutamate aggrecanase inhibitors” (Wyeth LLC, priority 2005, dated 2011):

Key:
recombinant human MMP-2 = target: T1, recombinant human MMP-2 (Homo sapiens, UniProt P08253); test: In vitro fluorescence assay of MMP-2 activity
T1 sequence (P08253 110-660): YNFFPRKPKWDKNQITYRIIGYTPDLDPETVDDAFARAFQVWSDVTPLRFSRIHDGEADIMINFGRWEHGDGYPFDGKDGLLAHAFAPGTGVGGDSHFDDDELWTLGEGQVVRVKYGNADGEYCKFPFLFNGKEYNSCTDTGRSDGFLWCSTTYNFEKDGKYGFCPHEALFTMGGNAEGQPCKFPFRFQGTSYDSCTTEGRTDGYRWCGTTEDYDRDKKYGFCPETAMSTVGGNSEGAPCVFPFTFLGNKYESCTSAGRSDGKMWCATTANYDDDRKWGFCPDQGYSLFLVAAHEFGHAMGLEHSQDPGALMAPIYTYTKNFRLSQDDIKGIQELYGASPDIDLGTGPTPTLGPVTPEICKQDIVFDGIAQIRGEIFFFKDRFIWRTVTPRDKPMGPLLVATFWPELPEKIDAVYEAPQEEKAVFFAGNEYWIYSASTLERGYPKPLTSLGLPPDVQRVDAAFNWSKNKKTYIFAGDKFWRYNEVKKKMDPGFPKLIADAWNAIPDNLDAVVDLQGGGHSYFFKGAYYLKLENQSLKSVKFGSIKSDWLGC

[1] = target: T2, recombinant human catalytic domain of MMP-13 (Homo sapiens, UniProt P45452); test: In vitro fluorescence assay of MMP-13 activity; type: biochemical; conditions: Table 1; unit inferred
T2 construct: catalytic domain of MMP-13 (165 amino acids, residues 104-268, 19 kDa)

[2] = test system: newly synthesized aggrecan in human OA articular cartilage; test: Cartilage aggrecan metabolism study in human OA cartilage explants; type: cell-based; conditions: cartilage from 3 human OA donors, 35SO4 label
Excerpt: Human OA Cartilage Explant Culture: Discarded tissues from consented knee replacement patients were obtained from New England Baptist Hospital (Brookline, Mass.) in sterile phosphate buffered saline (PBS) after about 2-4 hrs post surgery. Cartilage slices were harvested from the knee specimens and washed several times in PBS. These cartilage slices were cut into appropriate pieces (6-8 mm) and rinsed in PBS and then in media and further cultured for additional days as cartilage explants. The medium consisted of Dulbecco's Modified Eagle's medium (DMEM, JRH Biosciences, Lenexa, Kans.), 50 μg/ml ascorbic acid (Wako, Osaka, Japan), 10 mM HEPES, pH 7.0 (Mediatech, Herndon, Va.), 2 mM L-glutamine (Mediatech), 100 U/ml antibiotic-antimycotic solution (Mediatech).
Cartilage aggrecan metabolism study: Cartilage metabolism study was performed with test compound 8OO. Cartilage explants immediately after harvest were cultured in the presence or absence of test compound 8OO. On day 3, media was collected and replaced with media, test compound and labeled sulfate (^35SO4,5 mCi, Perkin Elmer, Boston, Mass.). On day 6, media was collected, explants washed and replaced with media and test compound 8OO. […] Labeled aggrecan molecules were counted using Opti-Fluor (Perkin Elmer) and a liquid scintillation-measuring instrument (Beckman Coulter, Fullerton, Calif.). […]

CC(C)(Cc1ccc(F)cc1)NC(=O)[C@H](CCC(=O)O)NC(=O)c1ccc(-c2ccccc2)cc1 [Example 8OO, N^2-(1,1′-biphenyl-4-ylcarbonyl)-N^1-[2-(4-fluorophenyl)-1,1-dimethylethyl]-L-α-glutamine]
IC50 (recombinant human MMP-2): > 20 µM | IC50 [1]: > 50 µM | aggrecan released into the medium [2]: equivalent decrease | newly synthesized aggrecan content of the cartilage matrix [2]: dose dependent increase
